One experiment has as its target T1, human PR-B (Homo sapiens, UniProt P06401).
T1 construct: expressed in transfected cells; host or cells: CV-1 cells (African green monkey kidney fibroblasts), transient transfection
T1 sequence (P06401 1-933): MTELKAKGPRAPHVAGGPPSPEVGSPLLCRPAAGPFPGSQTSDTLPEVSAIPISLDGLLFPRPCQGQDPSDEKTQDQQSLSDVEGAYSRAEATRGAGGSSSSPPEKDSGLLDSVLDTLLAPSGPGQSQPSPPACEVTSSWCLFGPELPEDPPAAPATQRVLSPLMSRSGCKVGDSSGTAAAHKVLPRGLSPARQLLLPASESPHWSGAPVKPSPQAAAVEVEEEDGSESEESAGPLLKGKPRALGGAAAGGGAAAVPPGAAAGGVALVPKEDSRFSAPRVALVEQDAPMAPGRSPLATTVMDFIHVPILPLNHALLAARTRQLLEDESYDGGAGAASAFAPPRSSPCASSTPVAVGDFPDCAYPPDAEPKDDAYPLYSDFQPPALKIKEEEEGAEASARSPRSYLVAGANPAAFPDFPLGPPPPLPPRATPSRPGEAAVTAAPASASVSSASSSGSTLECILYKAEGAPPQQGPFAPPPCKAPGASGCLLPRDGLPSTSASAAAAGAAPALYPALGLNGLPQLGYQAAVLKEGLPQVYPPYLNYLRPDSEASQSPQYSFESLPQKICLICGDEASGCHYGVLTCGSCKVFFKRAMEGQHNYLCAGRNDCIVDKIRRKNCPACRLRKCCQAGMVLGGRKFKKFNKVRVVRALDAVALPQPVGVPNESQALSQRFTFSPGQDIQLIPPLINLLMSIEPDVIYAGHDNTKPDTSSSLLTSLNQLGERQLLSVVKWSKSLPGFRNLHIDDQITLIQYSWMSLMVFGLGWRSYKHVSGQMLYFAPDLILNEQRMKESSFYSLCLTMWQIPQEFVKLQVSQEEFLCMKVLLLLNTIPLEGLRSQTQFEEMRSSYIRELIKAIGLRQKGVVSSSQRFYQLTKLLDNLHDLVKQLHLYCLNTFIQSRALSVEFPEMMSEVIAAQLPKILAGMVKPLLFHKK
The experiment can be described thus: Co-transfection assay, PR agonist and antagonist activity, CV-1 cells.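 As to all read-outs here: luciferase reporter driven by a hormone response element, co-transfected with human PR-B into CV-1 monkey kidney cells, agonists raise and antagonists lower the reporter signal.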 It is filed as cell-based. Particulars: for IC50: read-out: PR Antagonist CV-1 Cells Potency.

Experiment [1] deals with T2, human progesterone receptor A form (PR-A) (Homo sapiens, UniProt P06401).
T2 sequence (P06401 1-769 isoform P06401-2): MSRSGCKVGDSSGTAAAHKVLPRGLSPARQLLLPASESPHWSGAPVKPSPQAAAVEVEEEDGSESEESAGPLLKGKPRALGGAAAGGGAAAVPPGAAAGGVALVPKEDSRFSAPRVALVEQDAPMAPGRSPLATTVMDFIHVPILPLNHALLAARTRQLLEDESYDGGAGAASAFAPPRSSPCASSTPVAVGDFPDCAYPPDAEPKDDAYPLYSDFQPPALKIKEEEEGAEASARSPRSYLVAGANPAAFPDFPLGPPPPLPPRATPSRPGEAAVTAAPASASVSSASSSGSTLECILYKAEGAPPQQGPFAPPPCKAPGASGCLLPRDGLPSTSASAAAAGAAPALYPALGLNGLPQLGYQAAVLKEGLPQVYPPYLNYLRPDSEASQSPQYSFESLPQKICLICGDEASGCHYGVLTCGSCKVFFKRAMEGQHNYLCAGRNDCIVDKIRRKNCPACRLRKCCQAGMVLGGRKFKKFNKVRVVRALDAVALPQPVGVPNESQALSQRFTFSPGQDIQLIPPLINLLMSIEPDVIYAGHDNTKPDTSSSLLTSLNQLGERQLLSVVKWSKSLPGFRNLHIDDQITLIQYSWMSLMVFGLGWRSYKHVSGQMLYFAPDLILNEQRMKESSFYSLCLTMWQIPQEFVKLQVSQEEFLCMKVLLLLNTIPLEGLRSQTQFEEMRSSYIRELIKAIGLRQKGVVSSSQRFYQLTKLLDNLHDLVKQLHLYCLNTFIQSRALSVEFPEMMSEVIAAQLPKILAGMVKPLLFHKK
Description: PR binding assay, baculovirus extract, [3H] progesterone.

The subject of experiment [2] is uterine wet weight in ovariectomized Sprague-Dawely rats. Description: Uterine wet weight assay (PR agonists). Type of experiment: in vivo, rat. As to conditions: MPA and Compound 210 at 0.3, 1.0 and 3.0 mg/rat; Compound 163 at 3 mg/rat. An excerpt: The effectiveness of selected compounds of the present invention as PR agonists was investigated in the well recognized uterine wet weight assay, as described in G. J. Marcus, “Mitosis in the rat uterus during the estrous cycle, early pregnancy and early pseudopregnancy”, 10 Biol. Reprod., 447 (1974), S. […] J. Obstet. […] I. Dorfman, “Estrogens” (Ch. 2) and “Antiestrogens” (Ch. 3). in Methods in Hormone Research, ed. R. I. Dorfman, Academic Press, New York, New York, pp101-130 (1969), the disclosures of which are herein incorporated by reference. Four to five week old, ovariectomized, Sprague-Dawely rats (Harlan-Sprague-Dawely, Indianapolis, Ind.) were obtained 1 week after surgery and allowed to acclimate for an additional week after shipment. […] Louis, Mo.) a synthetic estrogen agonist, were fully dissolved in purified sesame oil (Croda, Parsippany, N.J.). […] Additional control groups of rats were administered estrone or vehicle (i.e. sesame oil) alone. Animals were sacrificed on the fourth day of the experiment.

For a further experiment, the system named is PR, AR, ER, GR and MR. The experiment can be described thus: cis-trans or co-transfection assay, steroid receptor panel (cross-reactivity). As to conditions: as seen in the Tables. Type of experiment: cell-based, human.
Experiment [3] addresses T3, human androgen receptor (AR) (Homo sapiens, UniProt P10275).
T3 construct: expressed in transfected cells; host or cells: CV-1 cells, transient transfection
T3 sequence (P10275 1-920): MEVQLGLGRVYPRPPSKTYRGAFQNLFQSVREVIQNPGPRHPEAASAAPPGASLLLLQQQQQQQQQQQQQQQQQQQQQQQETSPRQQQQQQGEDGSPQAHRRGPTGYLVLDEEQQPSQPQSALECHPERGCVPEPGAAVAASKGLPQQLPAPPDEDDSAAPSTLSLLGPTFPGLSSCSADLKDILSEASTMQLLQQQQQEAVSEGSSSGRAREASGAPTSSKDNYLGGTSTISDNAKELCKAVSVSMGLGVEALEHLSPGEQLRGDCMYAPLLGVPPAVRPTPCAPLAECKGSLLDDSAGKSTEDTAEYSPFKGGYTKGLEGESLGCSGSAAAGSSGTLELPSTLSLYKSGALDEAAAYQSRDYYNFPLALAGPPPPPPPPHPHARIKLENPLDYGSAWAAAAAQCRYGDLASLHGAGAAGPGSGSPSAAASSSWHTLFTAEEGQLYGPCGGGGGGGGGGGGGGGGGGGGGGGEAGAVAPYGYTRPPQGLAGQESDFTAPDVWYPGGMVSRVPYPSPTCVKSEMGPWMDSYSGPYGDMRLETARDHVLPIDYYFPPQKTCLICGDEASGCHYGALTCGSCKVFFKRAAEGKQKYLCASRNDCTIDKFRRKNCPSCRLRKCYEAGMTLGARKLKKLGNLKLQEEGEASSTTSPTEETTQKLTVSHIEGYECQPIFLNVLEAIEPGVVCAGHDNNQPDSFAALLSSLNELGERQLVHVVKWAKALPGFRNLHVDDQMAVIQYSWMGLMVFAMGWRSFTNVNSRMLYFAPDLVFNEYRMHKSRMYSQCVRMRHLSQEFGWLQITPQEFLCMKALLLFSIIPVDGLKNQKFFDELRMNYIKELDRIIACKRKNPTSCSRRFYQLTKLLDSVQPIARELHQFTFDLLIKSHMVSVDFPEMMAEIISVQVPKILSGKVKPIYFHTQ
Description: Co-transfection assay, AR agonist and antagonist activity, CV-1 cells (pRShAR). Particulars: for AR Agonist CV-1 Cells Efficacy (%): relative to DHT; for AR Antagonist CV-1 Cells Efficacy (%): % maximal inhibition. It is filed as cell-based.

For another experiment, the target named is T4, human AR (Homo sapiens, UniProt P10275).
T4 construct: expressed in transfected cells; host or cells: COS-1 cells, transient transfection
T4 sequence (P10275 1-920): T3 sequence (P10275 1-920)
The experiment can be described thus: AR whole cell binding assay, transfected COS-1 cells, 3H-DHT.

Setting [4] is: agonist mode, EC50, read-out: PR Agonist CV-1 Cells Potency.
Setting [5] is: read-out: AR Agonist CV-1 Cells Potency, agonist mode, EC50.
The mark [6] stands for this setting: antagonist mode, DHT at its EC50.
[7] abbreviates: read-out: AR Antagonist CV-1 Cells Potency, Table 2, antagonist mode, IC50.

Experimental findings from patent US6448405B1, “Steroid receptor modulator compounds and methods” (Ligand Pharmaceuticals Incorporated, priority 1994, dated 2002) are described below.

Like-named read-outs stand apart in the source and are kept apart here.

For `CC1=CC(C)(C)Nc2ccc3c(c21)C(c1ccc(Cl)cc1)Oc1ccccc1-3` (racemic) [Compound 163, (R/S)-5-(4-Chlorophenyl)-1,2-dihydro-2,2,4-trimethyl-5H-chromeno[3,4-f]quinoline], the EC50 at human PR-B (setting [4]) worked out at 15 nM. The IC50 at human PR-B came to 3620 nM. Also, the inhibition constant (Ki) in experiment [1] (read-out: PR Binding Ki) is 1 nM. In addition, in experiment [2], the “effect on uterine wet weight when co-administered with estrone” value is listed as “decreased by approximately half”. The “steroid receptor selectivity profile” value in the experiment with PR, AR, ER, GR and MR is listed as “highly selective PR agonists”.
With `CC1CC(C)(C)Nc2cc3oc(=O)cc(-c4ccoc4)c3cc21` (racemic) [Compound 405, (R/S)-5-(3-Furyl)-1,2,3,4-tetrahydro-2,2,4-trimethyl-8-pyranono[5,6-g]quinoline], the EC50 in experiment [3] and in experiment [3] (setting [5]) was greater than 10000 nM in each case. This molecule also had an IC50 in experiment [3] of 77 nM. In addition, the “AR Agonist CV-1 Cells Efficacy (%)” value in experiment [3] (Table 2, agonist mode) was “na (na = not active (i.e. efficacy of <20 and potency of >10,000))”; in experiment [3] (agonist mode), “na (na = not active (i.e. efficacy of <20 and potency of >10,000))”. Besides, the “AR Antagonist CV-1 Cells Efficacy (%)” value in experiment [3] (Table 2, antagonist mode) came out at 89%. On human AR, this molecule showed a Ki of 6 nM.
In experiment [3], `CCC1CCNc2cc3oc(=O)cc(C(F)(F)F)c3cc21` (racemic) [Compound 414, (R/S)-4-Ethyl-1,2,3,4-tetrahydro-6-trifluoromethyl-8-pyranono[5,6-g]quinoline] displayed an EC50 of 1 nM. For the same molecule, the IC50 in experiment [3] and in experiment [3] (setting [7]) was greater than 10000 nM in each case. Also, in experiment [3] (Table 2, agonist mode), the “AR Agonist CV-1 Cells Efficacy (%)” value is reported as 118%. Further, the “AR Antagonist CV-1 Cells Efficacy (%)” value is “na (na = not active (i.e. efficacy of <20 and potency of >10,000))” in experiment [3] (Table 2, antagonist mode); “na (na = not active (i.e. efficacy of <20 and potency of >10,000))” in experiment [3] (setting [6]). Besides, affinity at human AR was put at a Ki of 0.3 nM.
With `CC1C(=O)C(C)(C)Nc2cc3[nH]c(=O)cc(C(F)(F)F)c3cc21` (racemic) [Compound 418, (R/S)-1,2,3,4-Tetrahydro-6-trifluoromethyl-2,2,4-trimethyl-8-pyridono[5,6-f]-3-quinolinone], the EC50 in experiment [3] and in experiment [3] (setting [5]) was greater than 10000 nM each time. Moreover, the IC50 in experiment [3] was determined as 200 nM. Further, the “AR Agonist CV-1 Cells Efficacy (%)” value in experiment [3] (Table 2, agonist mode) was “na (na = not active (i.e. efficacy of <20 and potency of >10,000))”; in experiment [3] (agonist mode), “na (na = not active (i.e. efficacy of <20 and potency of >10,000))”. Further, the “AR Antagonist CV-1 Cells Efficacy (%)” value in experiment [3] (Table 2, antagonist mode) is on record as 63%. In addition, the Ki on human AR (competition with 1 nM 3H-DHT, COS-1 whole cells, three hours at 37° C., read-out: AR Binding Ki) was found to be 1000 nM.
`CC1=CC(C)(C)Nc2cc3c(cc21)-c1ccc(F)cc1C3` [Compound 124, 8-Fluoro-1,2-dihydro-2,2,4-trimethylindeno[1,2-g]quinoline]: the EC50 on human PR-B is 1600 nM. The “PR Agonist CV-1 Cells Efficacy (%)” value on human PR-B (agonist mode, percent maximal response relative to reference agonist progesterone) turned out to be 74%. Also, the “PR Antagonist CV-1 Cells Efficacy (%)” value at human PR-B (antagonist mode, progesterone at its EC50, % maximal inhibition) is listed as 36%. For the same molecule, on human PR-B (antagonist mode, progesterone at its EC50, IC50), the IC50 was found to be 10 nM. In addition, affinity in experiment [1] was put at a Ki of 4 nM. Moreover, the “steroid receptor selectivity profile” value in the experiment on PR, AR, ER, GR and MR is listed as “highly selective PR antagonists”.
Take `CC1=CC(C)(C)Nc2cc3oc(=O)cc(C(F)(F)F)c3cc21` [Compound 238, 1,2-Dihydro-2,2,4-trimethyl-6-trifluoromethyl-8-pyranono[5,6-g]quinoline]: the EC50 in experiment [3] was found to be 10 nM. For the same molecule, the IC50 in experiment [3] and in experiment [3] (setting [7]) was greater than 10000 nM in each case. Further, in experiment [3] (Table 2, agonist mode), the “AR Agonist CV-1 Cells Efficacy (%)” value stood at 96%. Moreover, the “AR Antagonist CV-1 Cells Efficacy (%)” value in experiment [3] (Table 2, antagonist mode) is “na (na = not active (i.e. efficacy of <20 and potency of >10,000))”; in experiment [3] (setting [6]), “na (na = not active (i.e. efficacy of <20 and potency of >10,000))”. This molecule also showed a Ki on human AR of 44 nM.
`CC1=CC(C)(C)Nc2ccc3c(c21)/C(=C/c1ccccc1C)Oc1ccc(F)cc1-3` [Compound 374, (Z)-9-Fluoro-1,2-dihydro-2,2,4-trimethyl-5-(2-methylbenzylidene)-5H-chromeno[3,4-f]quinoline]: at human PR-B, the “PR Agonist CV-1 Cells Efficacy (%)” value came to 231%; the “PR Antagonist CV-1 Cells Efficacy (%)” value is “na (na = not active (i.e. efficacy or <20 and potency of >10,000))”; the IC50 is greater than 10000 nM. In addition, the EC50 on human PR-B (setting [4]) is 4 nM. This molecule also registered a Ki in experiment [1] of 0.5 nM. Moreover, the “steroid receptor selectivity profile” value in the experiment with PR, AR, ER, GR and MR is on record as “highly selective PR agonists”.

Broadly, the Ki is a dissociation constant, usually derived from enzyme kinetics or from competition with a known ligand.
